13 molecules from US11339128B2 (Firmenich Incorporated, priority 2014, dated 2022) can be followed below.

The target of this assay is T1, T1R2/T1R3 taste receptor (Homo sapiens, UniProt Q7RTX0+Q8TE23).
T1 sequence (Q8TE23 20-839): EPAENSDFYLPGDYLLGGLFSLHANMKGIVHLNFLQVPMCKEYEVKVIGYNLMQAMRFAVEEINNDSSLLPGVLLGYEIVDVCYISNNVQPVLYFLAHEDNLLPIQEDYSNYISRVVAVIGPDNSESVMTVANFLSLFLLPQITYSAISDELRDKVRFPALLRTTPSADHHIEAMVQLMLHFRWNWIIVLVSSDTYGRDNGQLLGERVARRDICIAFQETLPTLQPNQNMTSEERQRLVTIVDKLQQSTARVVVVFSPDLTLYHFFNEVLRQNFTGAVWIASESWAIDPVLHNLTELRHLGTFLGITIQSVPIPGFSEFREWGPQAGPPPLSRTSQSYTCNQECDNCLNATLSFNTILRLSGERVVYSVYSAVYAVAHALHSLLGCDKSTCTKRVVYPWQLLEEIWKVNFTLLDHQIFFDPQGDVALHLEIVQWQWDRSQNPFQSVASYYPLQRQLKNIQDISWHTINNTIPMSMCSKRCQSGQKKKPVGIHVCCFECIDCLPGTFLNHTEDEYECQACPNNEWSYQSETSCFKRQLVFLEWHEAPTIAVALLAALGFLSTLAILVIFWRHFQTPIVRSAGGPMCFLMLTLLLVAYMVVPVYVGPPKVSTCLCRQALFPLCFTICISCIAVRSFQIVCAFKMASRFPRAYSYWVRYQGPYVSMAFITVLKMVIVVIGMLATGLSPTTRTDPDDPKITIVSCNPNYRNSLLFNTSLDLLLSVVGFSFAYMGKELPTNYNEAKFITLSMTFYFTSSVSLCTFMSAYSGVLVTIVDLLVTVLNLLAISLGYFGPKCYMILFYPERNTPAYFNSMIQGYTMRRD
T1 sequence (Q7RTX0 21-852): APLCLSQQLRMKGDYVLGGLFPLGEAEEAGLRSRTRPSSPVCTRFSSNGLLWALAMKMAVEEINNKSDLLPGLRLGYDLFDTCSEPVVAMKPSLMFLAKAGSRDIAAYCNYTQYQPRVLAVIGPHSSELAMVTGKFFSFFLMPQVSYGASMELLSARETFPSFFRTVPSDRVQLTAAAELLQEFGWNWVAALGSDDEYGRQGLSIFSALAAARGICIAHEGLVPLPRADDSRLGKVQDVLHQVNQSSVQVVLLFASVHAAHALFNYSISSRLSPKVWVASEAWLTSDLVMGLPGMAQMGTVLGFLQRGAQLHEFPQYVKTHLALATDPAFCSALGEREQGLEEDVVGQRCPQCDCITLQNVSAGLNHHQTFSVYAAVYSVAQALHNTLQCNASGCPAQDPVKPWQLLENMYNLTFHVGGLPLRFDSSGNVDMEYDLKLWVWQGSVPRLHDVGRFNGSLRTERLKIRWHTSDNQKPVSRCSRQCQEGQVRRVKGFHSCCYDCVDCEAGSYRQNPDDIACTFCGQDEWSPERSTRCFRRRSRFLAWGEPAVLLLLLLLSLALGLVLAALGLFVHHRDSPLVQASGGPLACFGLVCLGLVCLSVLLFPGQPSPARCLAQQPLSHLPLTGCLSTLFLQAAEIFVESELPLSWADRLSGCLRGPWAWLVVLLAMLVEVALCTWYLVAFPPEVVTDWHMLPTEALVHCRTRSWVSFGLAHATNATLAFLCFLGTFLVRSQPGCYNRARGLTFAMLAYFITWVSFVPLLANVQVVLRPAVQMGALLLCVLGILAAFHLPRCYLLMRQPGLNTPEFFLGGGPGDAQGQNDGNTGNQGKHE
The assay can be described thus: Receptor-based assay: sweetener EC50 enhancement ratio with and without test compound. The class given is cell-based. The settings on record: for Sucrose Enhancement EC50 Ratio: sweetener sucrose; for Sucralose Enhancement EC50 Ratio: sweetener sucralose; for Fructose Enhancement EC50 Ratio: sweetener fructose. A digest of the protocol: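 Sweetener (sucrose, sucralose, fructose) EC50 measured alone and with 1, 3, 10 or 50 μM test compound. Enhancement ratio = EC50 without/with compound; A = >1 to <10, B = 10–20, C = >20.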

Structures are written as SMILES.

Take `CCC(CC)OCC(=O)N[C@H]1CC[C@H](Oc2cccc3nc(C)c(C(=O)O)c(N)c23)CC1` [Compound 341]: the “Sucrose Enhancement EC50 Ratio” value (1 μM test compound) is “A (an enhancement ratio of greater than 1 and less than 10)”; the “Sucrose Enhancement EC50 Ratio” value (3 μM test compound) is reported as “B (an enhancement ratio from 10 to 20)”. Moreover, the “Sucralose Enhancement EC50 Ratio” value (3 μM test compound) is “A (an enhancement ratio of greater than 1 and less than 10)”.
As for `CCNCC(=O)N[C@H]1CC[C@H](Oc2cccc3nc(C)c(C(=O)O)c(N)c23)CC1.Cl` [Compound 400, 4-Amino-5-((trans-4-(2-(ethylamino)acetamido)cyclohexyl)oxy)-2-methyl quinolone-3-carboxylic acid (HCl)], the “Sucrose Enhancement EC50 Ratio” value runs as follows: (1 μM test compound) “A (an enhancement ratio of greater than 1 and less than 10)”; (3 μM test compound) “A (an enhancement ratio of greater than 1 and less than 10)”; (10 μM test compound) “A (an enhancement ratio of greater than 1 and less than 10)”. Besides, the “Fructose Enhancement EC50 Ratio” value is “A (an enhancement ratio of greater than 1 and less than 10)” (10 μM test compound); “A (an enhancement ratio of greater than 1 and less than 10)” (50 μM test compound). Moreover, the “Sucralose Enhancement EC50 Ratio” value (10 μM test compound) was “A (an enhancement ratio of greater than 1 and less than 10)”.
With `Cc1nc2cccc(O[C@H]3CC[C@H](NC(=O)CN)CC3)c2c(N)c1C(=O)O` [Compound 401], the “Sucrose Enhancement EC50 Ratio” value is “A (an enhancement ratio of greater than 1 and less than 10)” (1 μM test compound); “A (an enhancement ratio of greater than 1 and less than 10)” (3 μM test compound); “A (an enhancement ratio of greater than 1 and less than 10)” (10 μM test compound). For the setting “10 μM test compound”, the “Fructose Enhancement EC50 Ratio” value was “A (an enhancement ratio of greater than 1 and less than 10)”. The “Sucralose Enhancement EC50 Ratio” value (10 μM test compound) was “A (an enhancement ratio of greater than 1 and less than 10)”.
On to `CNCC(=O)N[C@H]1CC[C@H](Oc2cccc3nc(C)c(C(=O)O)c(N)c23)CC1` [Compound 402], for which the “Sucrose Enhancement EC50 Ratio” value (1 μM test compound) was “A (an enhancement ratio of greater than 1 and less than 10)”. The “Sucrose Enhancement EC50 Ratio” value (3 μM test compound) is “A (an enhancement ratio of greater than 1 and less than 10)”. Moreover, for the setting “10 μM test compound”, the “Fructose Enhancement EC50 Ratio” value is “A (an enhancement ratio of greater than 1 and less than 10)”; the “Sucralose Enhancement EC50 Ratio” value is “A (an enhancement ratio of greater than 1 and less than 10)”; the “Sucrose Enhancement EC50 Ratio” value is listed as “B (an enhancement ratio from 10 to 20)”.
In the case of `CN[C@@H](C)C(=O)N[C@H]1CC[C@H](Oc2cccc3nc(C)c(C(=O)O)c(N)c23)CC1.Cl` [Compound 500], the “Sucrose Enhancement EC50 Ratio” value by setting is: (1 μM test compound) “A (an enhancement ratio of greater than 1 and less than 10)”; (3 μM test compound) “A (an enhancement ratio of greater than 1 and less than 10)”; (10 μM test compound) “A (an enhancement ratio of greater than 1 and less than 10)”. Further, the “Sucralose Enhancement EC50 Ratio” value (10 μM test compound) was “A (an enhancement ratio of greater than 1 and less than 10)”. Besides, the “Fructose Enhancement EC50 Ratio” value (50 μM test compound) was “A (an enhancement ratio of greater than 1 and less than 10)”.
On to `CNC(C)(C)C(=O)N[C@H]1CC[C@H](Oc2cccc3nc(C)c(C(=O)O)c(N)c23)CC1` [Compound 501], for which the “Sucrose Enhancement EC50 Ratio” value (1 μM test compound) was “A (an enhancement ratio of greater than 1 and less than 10)”; the “Sucrose Enhancement EC50 Ratio” value (3 μM test compound) was “A (an enhancement ratio of greater than 1 and less than 10)”; the “Sucrose Enhancement EC50 Ratio” value (10 μM test compound) was “A (an enhancement ratio of greater than 1 and less than 10)”. Further, the “Fructose Enhancement EC50 Ratio” value was “A (an enhancement ratio of greater than 1 and less than 10)” (10 μM test compound); “A (an enhancement ratio of greater than 1 and less than 10)” (50 μM test compound). Besides, the “Sucralose Enhancement EC50 Ratio” value (10 μM test compound) was “B (an enhancement ratio from 10 to 20)”.
`CN[C@@H](CO)C(=O)N[C@H]1CC[C@H](Oc2cccc3nc(C)c(C(=O)O)c(N)c23)CC1` [Compound 502]: the “Sucrose Enhancement EC50 Ratio” value (1 μM test compound) is “A (an enhancement ratio of greater than 1 and less than 10)”; the “Sucrose Enhancement EC50 Ratio” value (3 μM test compound) was “A (an enhancement ratio of greater than 1 and less than 10)”; the “Sucrose Enhancement EC50 Ratio” value (10 μM test compound) is “A (an enhancement ratio of greater than 1 and less than 10)”. For the same molecule, the “Fructose Enhancement EC50 Ratio” value (10 μM test compound) is “A (an enhancement ratio of greater than 1 and less than 10)”; the “Fructose Enhancement EC50 Ratio” value (50 μM test compound) is “A (an enhancement ratio of greater than 1 and less than 10)”. The “Sucralose Enhancement EC50 Ratio” value (10 μM test compound) was “A (an enhancement ratio of greater than 1 and less than 10)”.
Take `CN[C@H](C(=O)N[C@H]1CC[C@H](Oc2cccc3nc(C)c(C(=O)O)c(N)c23)CC1)C(C)C` [Compound 503]: the “Sucrose Enhancement EC50 Ratio” value by setting is: (1 μM test compound) “A (an enhancement ratio of greater than 1 and less than 10)”; (3 μM test compound) “A (an enhancement ratio of greater than 1 and less than 10)”; (10 μM test compound) “A (an enhancement ratio of greater than 1 and less than 10)”. Further, the “Fructose Enhancement EC50 Ratio” value is “A (an enhancement ratio of greater than 1 and less than 10)” (10 μM test compound); “A (an enhancement ratio of greater than 1 and less than 10)” (50 μM test compound). Under “10 μM test compound”, the “Sucralose Enhancement EC50 Ratio” value is reported as “B (an enhancement ratio from 10 to 20)”.
In the case of `Cc1nc2cccc(O[C@H]3CC[C@H](NC(=O)[C@@H]4CCCN4)CC3)c2c(N)c1C(=O)O` [Compound 504], the “Sucrose Enhancement EC50 Ratio” value is “A (an enhancement ratio of greater than 1 and less than 10)” (1 μM test compound); “A (an enhancement ratio of greater than 1 and less than 10)” (3 μM test compound).
Take `Cc1nc2cccc(O[C@H]3CC[C@H](NC(=O)CN4CCOCC4)CC3)c2c(N)c1C(=O)O.Cl` [Compound 600, 4-Amino-2-methyl-5-((trans-4-(2-morpholinoacetamido)cyclohexyl)oxy) quinolone-3-carboxylic acid (HCl)]: the “Sucrose Enhancement EC50 Ratio” value is listed as “B (an enhancement ratio from 10 to 20)” (1 μM test compound) and “C (an enhancement ratio greater than 20)” (3 μM test compound).
As for `COCC(=O)NC[C@H]1CC[C@H](Oc2cccc3nc(C)c(C(=O)O)c(N)c23)CC1` [Compound 601], the “Sucrose Enhancement EC50 Ratio” value is “A (an enhancement ratio of greater than 1 and less than 10)” (1 μM test compound); “C (an enhancement ratio greater than 20)” (3 μM test compound); “C (an enhancement ratio greater than 20)” (10 μM test compound). Further, the “Fructose Enhancement EC50 Ratio” value (10 μM test compound) is “A (an enhancement ratio of greater than 1 and less than 10)”.
Turning to `Cc1nc2cccc(O[C@H]3CC[C@H](CN)CC3)c2c(N)c1C(=O)O.Cl` [Compound 602], the “Sucrose Enhancement EC50 Ratio” value is “A (an enhancement ratio of greater than 1 and less than 10)” (1 μM test compound); “A (an enhancement ratio of greater than 1 and less than 10)” (3 μM test compound); “C (an enhancement ratio greater than 20)” (10 μM test compound). The “Fructose Enhancement EC50 Ratio” value (10 μM test compound) was “A (an enhancement ratio of greater than 1 and less than 10)”.
For the molecule `CCOCC(=O)NC[C@H]1CC[C@H](Oc2cccc3nc(C)c(C(=O)O)c(N)c23)CC1` [Compound 603], the “Sucrose Enhancement EC50 Ratio” value by setting is: (1 μM test compound) “A (an enhancement ratio of greater than 1 and less than 10)”; (3 μM test compound) “C (an enhancement ratio greater than 20)”; (10 μM test compound) “C (an enhancement ratio greater than 20)”. The “Sucralose Enhancement EC50 Ratio” value (10 μM test compound) is “C (an enhancement ratio greater than 20)”.
